From ChEMBL document CHEMBL1148158, “Antineoplastic Agents. 510. Isolation and structure of dolastatin 19 from the Gulf of California sea hare Dolabella auricularia” (2004) come the findings set out here.

For one assay, the system named is MCF7. The assay is described as follows: Growth inhibition of human MCF7 cells. The format is functional.
For the next assay, the system named is KM-20L2. The assay is described as follows: Growth inhibition of human KM20L2 cells. The format is functional.

One may read the GI50 as the concentration at which growth is held to half of that of the control.

Values after ≈ are worked out from the molar mass of the structure shown.

For `CO[C@@H]1[C@@H](O)[C@@H](OC)[C@H](O[C@@H]2C[C@]3(O)O[C@H](C[C@H](OC)/C=C(\C)C[C@@H](/C=C/C=C/Br)OC(=O)[C@H]3C)[C@H]2C)O[C@H]1C` [DOLASTATIN 19], the GI50 amounted to 0.72 µg/mL (≈ 1.14 µM) with MCF7 and 0.76 µg/mL (≈ 1.2 µM) in the assay on KM-20L2.
